Values of other authors, collected in US7459569B2, “Method of forming iron hydroxypyrone compounds” (Vitra Pharmaceuticals Limited, priority 2002, dated 2008).

Conditions: given on an empty stomach

Q: Which absorption rate does the source give for `O=S(=O)([O-])[O-].[Fe+2]` [ferrous sulphate] here?
A: 30%
